{"source": "patent US20130316016A1", "about": "“ANTIBACTERIAL OR ANTI-ACNE FORMULATIONS CONTAINING USNIC ACID OR AN USNATE AND A METAL SALT” (EVOCUTIS PLC, priority 2010, published 2013)", "tested_on": "Propionibacterium acnes NCTC 737", "experiment": "fixed ratio combination MIC/MBC assay", "assay_type": "cell-based", "details": "for active against P. acnes NCTC 737: compound alone, statement in words; for MBC / MIC: test compound alone; for MBC: P. acnes NCTC 737; for MIC: P. acnes NCTC 737, pH 6.0, anaerobic, 37° C., 72 hours", "experimental": "The test organism used was Propionibacterium acnes NCTC 737. This is a propionibacterial strain and is the type strain of the […]; it is fully susceptible to antibiotics. The propionibacteria are clinically significant due to their involvement in acne. They are also opportunistic pathogens in compromised hosts. Activity observed against these micro-organisms is expected to be a good predictor of activity against acne. The propionibacteria were cultured and maintained on Wilkins-Chalgren Anaerobe Medium (agar and broth) at pH 6.0; all cultures were incubated anaerobically at 37° C. for 72 hours. The following “fixed ratio combination MIC/MBC assay” was carried out to assess antimicrobial activity against the test organism. The method used a sterile 96-well microtitre plate, capable of holding about 200 μl of liquid per well. […] The culture medium was as described above. The wells were inoculated with a liquid suspension of freshly grown micro-organism and incubated under the conditions described above. After incubation, the microtitre plate was examined visually (with the aid of a light box) for cloudiness in each well, which would indicate microbial growth. The minimum inhibitory concentration (MIC) value was recorded as the lowest concentration of test compound alone, or the lowest concentration of the mixture of the two test compounds, required to inhibit microbial growth, i.e. where the liquid in the well remained clear. The assays were conducted in triplicate and included both negative (culture medium with no micro-organisms) and positive (culture medium plus diluting solvent(s) plus micro-organism) controls. […] These samples were then individually sub-cultured on antibiotic-free agar medium, under the incubation conditions described above. Following incubation they were examined visually for microbial growth. […] A fractional inhibitory concentration index (FICI) or fractional bactericidal concentration index (FBCI) was then calculated for each compound in the relevant mixture, and these two indices were added together to give an overall FICI or FBCI to indicate the mode of interaction. Thus for each mixture (of two compounds A and B) which was tested, the FIC for compound A (FICA)=MIC for (A+B)/MIC for A alone. Similarly the FIC for compound B (FICB)=MIC for (A+B)/MIC for B alone. The overall […]. FBCs and FBCIs were calculated in the same manner, using recorded MBC values.", "note": "Marks after values point to notes of the source that are not given here.", "data": [{"molecule": "CC(=O)c1c(O)c(C)c(O)c2c1OC1=CC(=O)C(C(C)=O)C(=O)C12C", "note": "(stereo not drawn) [Usnic acid, 2,6-diacetyl-7,9-dihydroxy-8,9b-dimethyl-1,3(2H,9bh)-dibenzofurandione]", "values": [{"measurement": "active against P. acnes NCTC 737", "value": "active"}]}, {"molecule": "CC(=O)[O-].CC(=O)[O-].[Cu+2]", "note": "[Copper (II) acetate, copper (II) acetate]", "values": [{"measurement": "MBC", "value": ">16.8* μg/ml"}, {"measurement": "MIC", "value": 16.8, "unit": "µg/mL"}]}, {"molecule": "CC(=O)[O-].[Cu+]", "note": "[Copper (I) acetate, copper (I) acetate]", "values": [{"measurement": "MBC", "value": 22.2, "unit": "µg/mL"}, {"measurement": "MIC", "value": 11.1, "unit": "µg/mL"}]}, {"molecule": "O=S(=O)([O-])[O-].[Cu+2]", "note": "[Copper (II) sulphate, copper (II) sulphate]", "values": [{"measurement": "active against P. acnes NCTC 737", "value": "active"}, {"measurement": "MBC", "value": ">14.5* μg/ml"}, {"measurement": "MIC", "value": ">14.5* μg/ml"}]}, {"molecule": "[Cl][Bi]([Cl])[Cl]", "note": "[Bismuth (III) chloride, bismuth (III) chloride]", "values": [{"measurement": "active against P. acnes NCTC 737", "value": "active"}, {"measurement": "MBC", "value": ">19* μg/ml"}, {"measurement": "MIC", "value": 19, "unit": "µg/mL"}]}, {"molecule": "copper (II) D-gluconate", "values": [{"measurement": "MBC", "value": ">41.1* μg/ml"}, {"measurement": "MIC", "value": ">41.1* μg/ml"}]}, {"molecule": "[Cl][Cu][Cl]", "note": "[Copper (II) chloride, copper (II) chloride]", "values": [{"measurement": "MBC", "value": ">22.25* μg/ml"}, {"measurement": "MIC", "value": 12.2, "unit": "µg/mL"}]}]}
